What was measured:
[1] = system: H1a-luc or Zluc cells; experiment: in vitro; format: cell-based, human; conditions: Table 1B, cellular viability
Procedure: (§1) For cytotoxicity evaluation, HPC cells were treated with compounds as described above in the absence of the genotype 2a virus and cellular viability was monitored using the Cell Titer 96 AQueous One Solution Cell Proliferation Assay (Promega). Plates were then read at 490 nm in a Victor^3V 1420 multilabel counter (Perkin Elmer) and CC50 concentrations were determined using Microsoft Excel and XLfit 4.1 software.
as §1, with “H1a-luc or Zluc” for “HPC”, “above” for “above in the absence of the genotype 2a virus”

[2] = system: HCV genotype 1b Con1 strain subgenomic luciferase replicon (Zluc); experiment: Luciferase replicon assay, genotype 1b; format: cell-based; conditions: Hepatitis C virus
Procedure: (§2) The HCV luciferase replicon assay measures the ability of a test compound to inhibit HCV replication in cell culture after 3 days of treatment in a human hepatoma cell line (Huh-7) bearing an HCV replicon containing a luciferase-neomycin phosphotransferase fusion gene. The inhibition of HCV replication was measured by quantification of luciferase protein expression. Briefly, Huh-7 cells containing either the HCV genotype 1a H77 strain or genotype 1b Con1 strain subgenomic luciferase replicon (H1a-luc or Zluc, respectively) were grown in DMEM containing glucose, L-glutamine and sodium pyruvate, 10% fetal bovine serum (FBS), 100 IU/mL penicillin, 100 μg/mL streptomycin, 2 mM GlutaMAX, non-essential amino acids and 0.25 (H1a-luc) or 0.5 (Zluc) mg/mL G418. GlutaMAX was obtained from Invitrogen, Corp.; all other media reagents were obtained from Mediatech, Inc. For dose-response testing, the cells were seeded in 96-well plates at 1×10^4 (H1a-luc) or 7.5×10^3 (Zluc) cells/well in a volume of 50 μL, and incubated at 37° C./5% CO2. Three hours after plating, 50 μL of ten 5-fold serial dilutions of compound were added, and cell cultures were incubated at 37° C./5% CO2 for 72 hours. In all cases, Huh-7 cells lacking the HCV replicon served as negative control. To assess luciferase expression, the media/compound was removed from the plates and ONE-glo Luciferase assay reagent (Promega) was added to each well. The assay plates were shaken for 3 minutes at room temperature and luciferase activity for each well was measured with a 1 sec read time on the Victor^3V multilabel counter using a 700 nm cut-off filter (Perkin Elmer). EC50 values were calculated from dose response curves from the resulting best-fit equations determined by Microsoft Excel and XLfit 4.1 software.

[3] = system: HCV genotype 1a H77 strain subgenomic luciferase replicon (H1a-luc); experiment: Luciferase replicon assay, genotype 1a; format: cell-based; conditions: Hepatitis C virus, read-out: EC50 1a
Procedure: Drug titration analysis was performed using the luciferase replicon assay described herein.
as §2

[4] = in vitro; format: cell-based; conditions: human; GS4.1 cells, cellular viability
Procedure: For cytotoxicity evaluation, GS4.1 cells were treated with compounds as described above and cellular viability was monitored using the Cell Titer 96 AQeous One Solution Cell Proliferation Assay (Promega). CC50 values were determined from the % cytotoxicity versus concentration data with Tecan Magellan software as described above.

[5] = system: HCV Con1 subgenomic replicon (GS4.1 cells); experiment: HCV replicon assay (NS5A ELISA, 72 hrs); format: cell-based; conditions: Hepatitis C virus
Procedure: Huh-7 cells containing HCV Con1 subgenomic replicon (GS4.1 cells) were grown in Dulbecco's Modified Eagle Medium (DMEM) supplemented with 10% fetal bovine serum (FBS), 2 mM L-glutamine, 110 mg/L sodium pyruvate, 1× non-essential amino acids, 100 U/mL penicillin-streptomycin, and 0.5 mg/mL G418 (Invitrogen). For dose-response testing, the cells were seeded in 96-well plates at 7.5×10^3 cells/well in a volume of 50 μL, and incubated at 37° C./5% CO2. Three hours after plating, 50 μL often 2-fold serial dilutions of compounds (highest concentration, 75 μM) were added, and cell cultures were incubated at 37° C./5% CO2 in the presence of 0.5% DMSO. Alternatively, compounds were tested at a single concentration of 15 μM. In all cases, Huh-7 cells lacking the HCV replicon served as negative control. The cells were incubated in the presence of compounds for 72 hrs after which they were monitored for expression of the NS5A protein by enzyme-linked immunosorbent assay (ELISA). For this, the plates were then fixed for 1 min with acetone/methanol (1:1, v/v), washed twice with phosphate-buffered saline (PBS), 0.1% Tween 20, blocked for 1 hr at room temperature with TNE buffer containing 10% FBS and then incubated for 2 hr at 37° C. with the anti-NS5A mouse monoclonal antibody A-236 (ViroGen) diluted in the same buffer. After washing three times with PBS, 0.1% Tween 20, the cells were incubated 1 hr at 37° C. with anti-mouse immunoglobulin G-peroxidase conjugate in TNE, 10% FBS. After washing as described above, the reaction was developed with O-phenylenediamine (Zymed). The reaction was stopped after 30 min with 2 NH2SO4, and absorbance was read at 492 nm using Sunrise Tecan spectrophotometer. EC50 values were determined from the % inhibition versus concentration data using a sigmoidal non-linear regression analysis based on four parameters with Tecan Magellan software.

SMILES: COC(=O)N[C@H](C(=O)N1CCCC1c1ncc(-c2cc3sc(-c4ccc(-c5cnc([C@@H]6CCCN6C(=O)[C@H](NC(=O)OC)c6ccccc6)[nH]5)cc4)cc3s2)[nH]1)C(C)C (stereo partly drawn) [Compound A217]
- CC50 [1]: > 75 µM
- EC50 [2]: < 0.0001 µM
- EC50 [3]: < 0.0001 µM

SMILES: COC(=O)N[C@H](C(=O)N1CCCC1c1ncc(-c2ccc(-n3ccc4c(-c5cnc(C6CCCN6C(=O)[C@@H](NC(=O)OC)C(C)C)[nH]5)csc43)c(Cl)c2)[nH]1)C(C)C (stereo partly drawn) [Compound A213]
- EC50 [2]: < 0.0001 µM
- EC50 [3]: 0.0001 to 0.001 µM

SMILES: COC(=O)N[C@H](C(=O)N1CCC[C@H]1c1cc(-c2ccc(-c3cn4cc(NC(=O)[C@@H]5CCCN5C(=O)[C@H](NC(=O)OC(C)C)c5ccccc5)nc4s3)cc2)[nH]n1)C(C)C [Compound A156]
- CC50 [4]: > 75 µM
- EC50 [5]: < 0.001 µM

SMILES: CC(C)(C)OC(=O)N1CCCC1c1nc(-c2ccc(-c3cn4cc(-c5ccc(-c6cnc([C@@H]7CCCN7C(=O)OC(C)(C)C)[nH]6)cc5)sc4n3)cc2)c[nH]1 (stereo partly drawn) [Compound A157]
- CC50 [4]: > 75 µM
- EC50 [5]: 0.01 to 0.1 µM

SMILES: COC(=O)N[C@H](C(=O)N1CCC[C@H]1c1ncc(-c2csc3c(-c4cnc([C@@H]5CCCN5C(=O)[C@@H](NC(=O)OC)C(C)C)[nH]4)csc23)[nH]1)C(C)C [Compound A82, ((S)-1-{(S)-2-[5-(6-{2-[(S)-1-((S)-2-methoxycarbonylamino-3-methyl-butyryl)-pyrrolidin-2-yl]-3H-imidazol-4-yl}-thieno[3,2-b]thiophen-3-yl)-1H-imidazol-2-yl]-pyrrolidine-1-carbonyl}-2-methyl-propyl)-carbamic acid methyl ester]
- CC50 [4]: 10 to 75 µM
- EC50 [5]: < 0.001 µM

SMILES: COC(=O)N[C@H](C(=O)N1CCC[C@H]1c1ncc(-c2ccc(-c3cn4cc(NC(=O)[C@@H]5CCCN5C(=O)[C@H](NC(=O)OC(C)(C)C)c5ccccc5)nc4s3)cc2)[nH]1)C(C)C [Compound A1, (S,S,S,R)-[1-(2-{5-[4-(6-{[1-(2-tert-butoxycarbonylamino-2-phenyl-acetyl)-pyrrolidine-2-carbonyl]-amino}imidazo[2,1-b]thiazol-2-yl)-phenyl]-1H-imidazol-2-yl}pyrrolidine-1-carbonyl)-2-methyl-propyl]-carbamic acid methyl ester]
- CC50 [4]: > 75 µM
- EC50 [5]: < 0.001 µM

SMILES: COC(=O)N[C@H](C(=O)N1CCC[C@H]1c1ncc(-c2ccc(-c3cn4cc(NC(=O)[C@@H]5CCCN5C(=O)[C@H](NC(=O)OC(C)C)c5ccccc5)nc4s3)cc2)[nH]1)C(C)C [Compound A56]
- CC50 [4]: > 75 µM
- EC50 [5]: < 0.001 µM

SMILES: COC(=O)N[C@H](C(=O)N1CCC[C@H]1c1nc2ccc(-c3cc4sc(-c5ccc(-c6c[nH]c([C@@H]7CCCN7C(=O)[C@H](NC(=O)OC)c7ccccc7)n6)cc5)cc4s3)cc2[nH]1)C(C)C [Compound A215, [(S)-1-((S)-2-{6-[5-(4-{(S)-2-[1-((R)-2-methoxycarbonylamino-2-phenyl-acetyl)-pyrrolidin-2-yl]-1H-imidazol-4-yl}-phenyl)-thieno[3,2-b]thiophen-2-yl)-1H-benzoimidazol-2-yl}-pyrrolidine-1-carbonyl)-2-methyl-propyl]-carbamic acid methyl ester]
- CC50 [1]: > 75 µM
- EC50 [2]: < 0.0001 µM
- EC50 [3]: < 0.0001 µM

SMILES: COC(=O)N[C@H](C(=O)N1CCCC1c1ncc(-c2cc3sc(-c4ncc(-c5c[nH]c([C@@H]6CCCN6C(=O)[C@@H](NC(=O)OC)C(C)C)n5)s4)cc3s2)[nH]1)C(C)C (stereo partly drawn) [Compound A130]
- CC50 [4]: > 75 µM
- EC50 [5]: < 0.001 µM

SMILES: COC(=O)N[C@H](C(=O)N1CCCC1c1ncc(-c2ccc(-c3csc4c(-c5cnc(C6CCCN6C(=O)OC(C)(C)C)[nH]5)csc34)cc2)[nH]1)C(C)C (stereo partly drawn) [Compound A151]
- CC50 [4]: 10 to 75 µM
- EC50 [5]: < 0.001 µM

SMILES: COC(=O)N[C@H](C(=O)N1CCCC1c1ncc(-c2csc3c(-c4ccc(-c5cnc(C6CCCN6C(=O)[C@@H](NC(=O)OC)C(C)C)[nH]5)cc4)csc23)[nH]1)c1ccccc1 (stereo partly drawn) [Compound A78]
- CC50 [4]: > 75 µM
- EC50 [5]: < 0.001 µM

SMILES: COC(=O)N[C@H](C(=O)N1CCCC1c1ncc(-c2cn3cc(-c4ccc(Cl)cc4)sc3n2)[nH]1)C(C)C (stereo partly drawn) [Compound A153]
- CC50 [4]: 10 to 75 µM
- EC50 [5]: 0.01 to 0.1 µM

SMILES: COC(=O)N[C@H](C(=O)N1CCCC1c1ncc(-c2ccc(-c3csc4c(-c5ccccc5)csc34)cc2)[nH]1)C(C)C (stereo partly drawn) [Compound A103]
- CC50 [4]: 10 to 75 µM
- EC50 [5]: 0.001 to 0.01 µM

SMILES: COC(=O)N[C@H](C(=O)N1CCCC1c1ncc(-c2ccc(-c3ccc(-c4nc5sccn5c4Cl)cc3)cc2)[nH]1)C(C)C (stereo partly drawn) [Compound A154]
- CC50 [4]: 10 to 75 µM
- EC50 [5]: 0.01 to 0.1 µM

SMILES: COC(=O)N[C@H](C(=O)N1CCCC1c1ncc(-c2ccc(-c3cn4ccsc4n3)cc2)[nH]1)C(C)C (stereo partly drawn) [Compound A160]
- CC50 [4]: > 75 µM
- EC50 [5]: 0.01 to 0.1 µM

SMILES: COC(=O)N[C@H](C(=O)N1CCCC1c1ncc(-c2ccc(-c3cc4sc(Br)cc4s3)cc2)[nH]1)C(C)C (stereo partly drawn) [Compound A168]
- CC50 [4]: 10 to 75 µM
- EC50 [5]: 0.01 to 0.1 µM

SMILES: COC(=O)N[C@@H](C(=O)N1CCC[C@H]1C(=O)Nc1ccc(-c2cn3cc(NC(=O)[C@@H]4CCCN4C(=O)[C@H](NC(=O)OC)c4ccccc4)nc3s2)cc1)c1ccccc1 [Compound A79]
- CC50 [4]: > 75 µM
- EC50 [5]: < 0.001 µM

SMILES: COC(=O)N[C@H](C(=O)N1CCC[C@H]1C(=O)Nc1ccc(-c2cn3cc(NC(=O)C4CCCN4C(=O)[C@@H](NC(=O)OC)C(C)C)nc3s2)cc1)c1ccccc1 (stereo partly drawn) [Compound A32]
- CC50 [4]: > 75 µM
- EC50 [5]: < 0.001 µM

SMILES: COC(=O)N[C@H](C(=O)N1CCC[C@H]1c1ncc(-c2ccc(-c3cn4cc(NC(=O)C5CCCN5C(=O)CNC(=O)OC(C)(C)C)nc4s3)cc2)[nH]1)C(C)C (stereo partly drawn) [Compound A31]
- CC50 [4]: > 75 µM
- EC50 [5]: 0.01 to 0.1 µM

SMILES: COC(=O)N[C@H](C(=O)N1CCCC1c1nc(-c2cc3sc(-c4ccc(-c5cnc([C@@H]6CCCN6C(=O)[C@@H](c6ccccc6)N6CCCCC6)[nH]5)cc4)cc3o2)c[nH]1)C(C)C (stereo partly drawn) [Compound A212]
- CC50 [1]: 10 to 75 µM
- EC50 [2]: < 0.0001 µM
- EC50 [3]: < 0.0001 µM

SMILES: COC(=O)N[C@H](C(=O)N1CCC[C@H]1c1ncc(-c2ccc(-c3csc4c(-c5cnc([C@@H]6CCCN6C(=O)[C@H](NC(=O)OC)c6ccccc6)[nH]5)csc34)cc2)[nH]1)C(C)C [Compound A200, [(S)-1-((S)-2-{4-[4-(6-{2-[(S)-1-((R)-2-methoxycarbonylamino-2-phenyl-acetyl)-pyrrolidin-2-yl]-3H-imidazol-4-yl}-thieno[3,2-b]thiophen-3-yl)-phenyl]-1H-imidazol-2-yl}-pyrrolidine-1-carbonyl)-2-methyl-propyl]-carbamic acid methyl ester]
- CC50 [1]: > 75 µM
- EC50 [2]: < 0.0001 µM
- EC50 [3]: 0.0001 to 0.001 µM

SMILES: COC(=O)N[C@H](C(=O)N1CCCC1c1ncc(-c2ccc(-c3csc4c(-c5cnc(C6CCCN6C(=O)OCc6ccccc6)[nH]5)csc34)cc2)[nH]1)C(C)C (stereo partly drawn) [Compound A49]
- CC50 [4]: > 75 µM
- EC50 [5]: < 0.001 µM
